Source: ChEMBL document CHEMBL5104220, “Development of Gilteritinib-Based Chimeric Small Molecules that Potently Induce Degradation of FLT3-ITD Protein” (ACS Med Chem Lett, 2022)
One block for each compound: values may come before it. Active and inactive are the calls of the source. The rule behind the calls is not given here.

What was measured:
[1] = biological target: T1, Signal transducer and activator of transcription 5A (Homo sapiens) (UniProt P42229); assay: Inhibition of STAT5 phosphorylation in human MV4-11 cells at 0.03 to 3 uM incubated for 24 hrs by Western blot analysis; type: cell-based; conditions: dose 0.03-3 µM
T1 sequence (whole entry): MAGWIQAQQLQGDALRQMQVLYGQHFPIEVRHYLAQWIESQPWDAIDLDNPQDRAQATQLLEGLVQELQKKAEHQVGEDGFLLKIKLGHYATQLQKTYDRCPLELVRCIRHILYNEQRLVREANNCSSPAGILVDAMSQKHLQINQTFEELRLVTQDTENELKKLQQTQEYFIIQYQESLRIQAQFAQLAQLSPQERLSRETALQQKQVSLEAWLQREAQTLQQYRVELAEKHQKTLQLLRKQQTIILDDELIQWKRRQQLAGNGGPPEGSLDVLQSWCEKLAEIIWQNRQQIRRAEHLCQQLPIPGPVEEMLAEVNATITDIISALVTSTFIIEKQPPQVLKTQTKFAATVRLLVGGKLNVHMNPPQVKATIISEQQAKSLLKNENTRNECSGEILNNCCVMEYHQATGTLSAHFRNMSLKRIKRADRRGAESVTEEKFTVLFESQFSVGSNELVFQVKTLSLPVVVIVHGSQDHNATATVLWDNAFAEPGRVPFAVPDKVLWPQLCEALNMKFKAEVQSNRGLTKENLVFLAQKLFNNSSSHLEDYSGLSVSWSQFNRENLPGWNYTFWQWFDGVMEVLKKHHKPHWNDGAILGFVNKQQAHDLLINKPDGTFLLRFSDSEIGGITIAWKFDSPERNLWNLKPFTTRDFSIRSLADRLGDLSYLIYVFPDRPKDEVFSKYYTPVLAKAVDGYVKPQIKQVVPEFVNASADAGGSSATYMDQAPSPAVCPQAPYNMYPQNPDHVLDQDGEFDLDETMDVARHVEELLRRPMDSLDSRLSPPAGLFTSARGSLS

[2] = tested on: Protein cereblon/Receptor-type tyrosine-protein kinase FLT3 (Homo sapiens), P36888+Q96SW2 [UNDEFINED MUTATION]; assay: PROTAC activity at CRBN/FLT3-ITD mutant in human MV4-11 cells assessed as decrease in FLT3 protein expression at 0.03 to 3 uM incubated for 24 hrs by Western blot analysis; type: cell-based; conditions: dose 0.03-3 µM
[3] = tested on: Protein cereblon/Receptor-type tyrosine-protein kinase FLT3 (Homo sapiens), P36888+Q96SW2 [UNDEFINED MUTATION]; assay: PROTAC activity at CRBN/FLT3-ITD mutant in human MOLM-14 cells assessed as decrease in FLT3 protein expression at 0.03 to 3 uM incubated for 24 hrs by Western blot analysis; type: cell-based; conditions: dose 0.03-3 µM
[4] = tested on: Protein cereblon/Receptor-type tyrosine-protein kinase FLT3 (Homo sapiens), P36888+Q96SW2 [UNDEFINED MUTATION]; assay: PROTAC activity at CRBN/FLT3-ITD mutant in human MV4-11 cells assessed as inhibition of STAT5 phosphorylation at 0.03 to 3 uM incubated for 24 hrs by Western blot analysis; type: cell-based; conditions: dose 0.03-3 µM
[5] = tested on: Protein cereblon/Receptor-type tyrosine-protein kinase FLT3 (Homo sapiens), P36888+Q96SW2 [UNDEFINED MUTATION]; assay: PROTAC activity at CRBN/FLT3-ITD mutant in human MV4-11 cells assessed as inhibition of FLT3 phosphorylation at 0.03 to 3 uM incubated for 24 hrs by Western blot analysis; type: cell-based; conditions: dose 0.03-3 µM
[6] = tested on: Protein cereblon/Receptor-type tyrosine-protein kinase FLT3 (Homo sapiens), P36888+Q96SW2 [UNDEFINED MUTATION]; assay: PROTAC activity at CRBN/FLT3-ITD mutant in human MOLM-14 cells assessed as decrease in IKZF1 protein expression at 0.01 to 0.3 uM incubated for 24 hrs by Western blot analysis; type: cell-based; conditions: dose 0.01-0.3 µM
MOLM-14 = assay: Antiproliferative activity against human MOLM-14 cells harboring FLT3-ITD mutant assessed as inhibition of cell proliferation incubated for 72 hrs by WST-8 assay; type: functional, cell-based; conditions: MOLM-14, 72 h
[7] = tested on: Protein cereblon/Receptor-type tyrosine-protein kinase FLT3 (Homo sapiens), P36888+Q96SW2 [UNDEFINED MUTATION]; assay: PROTAC activity at CRBN/FLT3-ITD mutant in human MV4-11 cells assessed as decrease in FLT3 protein expression at 0.3 to 3 uM incubated for 18 hrs in the presence of bafilomycin A1 by Western blot analysis; type: cell-based; conditions: dose 0.3-3 µM
[8] = tested on: Protein cereblon/Receptor-type tyrosine-protein kinase FLT3 (Homo sapiens), P36888+Q96SW2 [UNDEFINED MUTATION]; assay: PROTAC activity at CRBN/FLT3-ITD mutant in human MOLM-14 cells assessed as decrease in LTK protein expression by Western blot analysis; type: cell-based
[9] = tested on: Protein cereblon/Receptor-type tyrosine-protein kinase FLT3 (Homo sapiens), P36888+Q96SW2 [UNDEFINED MUTATION]; assay: PROTAC activity at CRBN/FLT3-ITD mutant in human MOLM-14 cells assessed as decrease in FLT3 mRNA expression at 0.03 to 3 uM incubated for 24 hrs by RT-qPCR analysis; type: cell-based; conditions: dose 0.03-3 µM
[10] = tested on: Protein cereblon/Receptor-type tyrosine-protein kinase FLT3 (Homo sapiens), P36888+Q96SW2 [UNDEFINED MUTATION]; assay: PROTAC activity at CRBN/FLT3-ITD mutant in human MV4-11 cells assessed as decrease in IKZF1 protein expression at 0.01 to 0.3 uM incubated for 24 hrs by Western blot analysis; type: cell-based; conditions: dose 0.01-0.3 µM
MV4-11 = assay: Antiproliferative activity against human MV4-11 cells harboring FLT3-ITD mutant assessed as inhibition of cell proliferation incubated for 72 hrs by WST-8 assay; type: functional, cell-based; conditions: MV4-11, 72 h
[11] = tested on: Protein cereblon/Receptor-type tyrosine-protein kinase FLT3 (Homo sapiens), P36888+Q96SW2 [UNDEFINED MUTATION]; assay: PROTAC activity at CRBN/FLT3-ITD mutant in human MV4-11 cells assessed as decrease in ALK protein expression by Western blot analysis; type: cell-based
[12] = tested on: Protein cereblon/Receptor-type tyrosine-protein kinase FLT3 (Homo sapiens), P36888+Q96SW2 [UNDEFINED MUTATION]; assay: PROTAC activity at CRBN/FLT3-ITD mutant in human MOLM-14 cells assessed as decrease in ALK protein expression by Western blot analysis; type: cell-based
[13] = tested on: Protein cereblon/Receptor-type tyrosine-protein kinase FLT3 (Homo sapiens), P36888+Q96SW2 [UNDEFINED MUTATION]; assay: PROTAC activity at CRBN/FLT3-ITD mutant in human MV4-11 cells assessed as decrease in LTK protein expression by Western blot analysis; type: cell-based
[14] = tested on: Protein cereblon/Receptor-type tyrosine-protein kinase FLT3 (Homo sapiens), P36888+Q96SW2 [UNDEFINED MUTATION]; assay: PROTAC activity at CRBN/FLT3-ITD mutant in human MV4-11 cells at 30 nM measured upto 32 hrs in the presence of cycloheximide by Western blot analysis; type: cell-based

Chain of Protein cereblon/Receptor-type tyrosine-protein kinase FLT3 (Homo sapiens), P36888+Q96SW2 [UNDEFINED MUTATION] (P36888 whole entry, looked up, stated change not applied): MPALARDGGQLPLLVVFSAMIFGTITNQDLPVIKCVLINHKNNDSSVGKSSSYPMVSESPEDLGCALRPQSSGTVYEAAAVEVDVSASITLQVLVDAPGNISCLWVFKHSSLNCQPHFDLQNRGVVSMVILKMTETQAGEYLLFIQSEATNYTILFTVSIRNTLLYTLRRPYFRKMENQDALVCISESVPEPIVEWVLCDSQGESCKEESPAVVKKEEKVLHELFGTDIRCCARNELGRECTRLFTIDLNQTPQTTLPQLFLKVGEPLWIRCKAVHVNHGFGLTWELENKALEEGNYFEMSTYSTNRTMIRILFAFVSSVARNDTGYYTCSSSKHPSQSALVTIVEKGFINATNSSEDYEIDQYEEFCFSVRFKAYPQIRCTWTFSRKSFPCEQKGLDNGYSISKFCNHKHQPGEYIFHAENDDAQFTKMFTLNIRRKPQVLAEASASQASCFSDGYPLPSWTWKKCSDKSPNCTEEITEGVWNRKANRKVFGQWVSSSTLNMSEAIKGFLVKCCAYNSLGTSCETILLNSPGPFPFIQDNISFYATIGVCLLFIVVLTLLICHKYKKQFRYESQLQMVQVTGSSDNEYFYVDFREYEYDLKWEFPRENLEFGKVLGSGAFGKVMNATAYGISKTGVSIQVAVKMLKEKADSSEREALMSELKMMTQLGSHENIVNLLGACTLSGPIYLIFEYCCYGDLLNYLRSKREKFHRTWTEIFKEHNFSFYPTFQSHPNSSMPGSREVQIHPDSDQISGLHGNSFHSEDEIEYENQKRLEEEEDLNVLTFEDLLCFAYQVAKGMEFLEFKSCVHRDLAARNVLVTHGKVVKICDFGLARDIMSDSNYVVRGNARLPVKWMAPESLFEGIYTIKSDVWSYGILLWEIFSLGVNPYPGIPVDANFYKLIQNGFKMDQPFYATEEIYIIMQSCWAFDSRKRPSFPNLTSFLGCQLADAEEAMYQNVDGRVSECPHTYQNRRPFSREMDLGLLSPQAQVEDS
Chain of Protein cereblon/Receptor-type tyrosine-protein kinase FLT3 (Homo sapiens), P36888+Q96SW2 [UNDEFINED MUTATION] (Q96SW2 whole entry, looked up, stated change not applied): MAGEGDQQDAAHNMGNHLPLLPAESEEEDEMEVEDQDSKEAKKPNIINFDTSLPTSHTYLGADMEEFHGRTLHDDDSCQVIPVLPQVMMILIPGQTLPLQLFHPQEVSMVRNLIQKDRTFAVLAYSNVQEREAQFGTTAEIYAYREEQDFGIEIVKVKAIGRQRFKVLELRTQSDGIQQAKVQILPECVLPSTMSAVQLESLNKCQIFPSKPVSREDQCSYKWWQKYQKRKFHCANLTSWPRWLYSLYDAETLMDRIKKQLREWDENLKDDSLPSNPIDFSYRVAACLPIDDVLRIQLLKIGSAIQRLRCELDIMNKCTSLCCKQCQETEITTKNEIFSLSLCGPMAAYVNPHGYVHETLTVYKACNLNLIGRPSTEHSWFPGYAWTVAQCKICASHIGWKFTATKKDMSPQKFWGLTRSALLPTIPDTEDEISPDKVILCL

Compound: CNC(=O)c1cc(Oc2ccc(NC(=O)Nc3ccc(Cl)c(C(F)(F)F)c3)cc2)ccn1
inhibition [1]: Active

Compound: CCc1nc(C(N)=O)c(Nc2ccc(N3CCC(N4CCN(CC5CCN(C(=O)CCOCCOCCOCCOCCNc6cccc7c6C(=O)N(C6CCC(=O)NC6=O)C7=O)CC5)CC4)CC3)c(OC)c2)nc1NC1CCOCC1 (stereo unspecified)
Activity [2]: Active
Activity [3]: Active
Activity [4]: Active
Activity [5]: Active

Compound: CCc1nc(C(N)=O)c(Nc2ccc(N3CCC(N4CCN(CC5CCN(C(=O)CCOCCOCCNc6cccc7c6C(=O)N(C6CCC(=O)NC6=O)C7=O)CC5)CC4)CC3)c(OC)c2)nc1NC1CCOCC1 (stereo unspecified)
Activity [6]: Active
IC50 (MOLM-14): 2.8 nM
Activity [7]: Active
Activity [2]: Active
Activity [8]: Active
Activity [3]: Active
Activity [9]: Active
Activity [10]: Active
IC50 (MV4-11): 0.9 nM
Activity [11]: Active
Activity [12]: Active
Activity [13]: Active
Activity [14]: Active

The next lines start with the values.

inhibition [1]: Active
Compound: CCc1nc(C(N)=O)c(Nc2ccc(N3CCC(N4CCN(C)CC4)CC3)c(OC)c2)nc1NC1CCOCC1

inhibition [1]: Active
Compound: CC(C)(C)c1cc(NC(=O)Nc2ccc(-c3cn4c(n3)sc3cc(OCCN5CCOCC5)ccc34)cc2)no1

inhibition [1]: Active
Compound: CC1(COc2ccc3c(c2)ncn3-c2ccc3cccc(N4CCC(N)CC4)c3n2)COC1
